Laboratory results: patent publication US11787809B2 (NIHON NOHYAKU CO., LTD., priority 2015, dated 2023)
Where two headings read alike, the source gives them in different places.

Experiments:
Laodelphax striatella = experiment: Insecticidal test on Laodelphax striatella (rice seedling dip); type: in vivo; settings: Laodelphax striatellus, 192 h, read-out: insecticidal effect (corrected mortality rate)
Text: Insecticidal Test on Laodelphax striatella
The oxime group-containing condensed heterocyclic compounds represented by the general formula (1) of the present invention or salts thereof were separately dispersed in water and diluted to 500 ppm, and rice plant seedlings (variety: Nihonbare) were dipped in the agrochemical dispersions for 30 seconds. After air-dried, each seedling was put into a separate glass test tube and inoculated with ten 3rd-instar larvae of Laodelphax striatella, and then the glass test tubes were capped with cotton plugs. At 8 days after the inoculation, the numbers of surviving larvae and dead larvae were counted, the corrected mortality rate was calculated according to the formula shown below, and the insecticidal effect was evaluated according to the criteria of Test Example 1. Corrected mortality rate (%)=100×(Survival rate in a non-treatment plot−Survival rate in a treatment plot)/Survival rate in a non-treatment plot [Math. 2]

Plutella xylostella = experiment: Insecticidal test on Plutella xylostella (dip of Chinese cabbage seedlings with laid eggs); type: in vivo; settings: 144 h
Text: Insecticidal Test on Plutella xylostella
Adults of Plutella xylostella were released onto Chinese cabbage seedlings and allowed to lay eggs thereon. At 2 days after the release of the adults, the Chinese cabbage seedlings with laid eggs were dipped for about 30 seconds in agrochemical dispersions diluted to 500 ppm, each of which contained a different kind of oxime group-containing condensed heterocyclic compound represented by the general formula (1) of the present invention as an active ingredient. After air-dried, the seedlings were kept in a thermostatic chamber at 25° C. At 6 days after the dip treatment, the number of hatched larvae per plot was counted, the mortality rate was calculated according to the formula shown below, and the insecticidal effect was evaluated according to the criteria of Test Example 1. This test was conducted in triplicate using 10 adults of Plutella xylostella per plot. Corrected mortality rate (%)=100×(Number of hatched larvae in a non-treatment plot−Number of hatched larvae in a treatment plot)/Number of hatched larvae in a non-treatment plot [Math. 3]

[1] = 500 ppm, rice seedlings (Nihonbare) dipped 30 seconds, ten 3rd-instar larvae, 8 days after inoculation, criteria of Test Example 1
[2] = 500 ppm, Chinese cabbage seedlings with laid eggs dipped about 30 seconds, 25° C., 6 days after dip treatment, criteria of Test Example 1, read-out: insecticidal effect (corrected mortality rate, hatched larvae)

| Structure (SMILES) | mortality at 500 ppm (Laodelphax striatella; [1]) [%] | mortality at 500 ppm (Plutella xylostella; [2]) [%] | mortality at 500 ppm (Laodelphax striatella; in Oryza sativa) [%] | mortality at 500 ppm (Plutella xylostella; in Brassica rapa, read-out: insecticidal effect (corrected mortality rate, hatched larvae)) [%] |
| --- | --- | --- | --- | --- |
| CCS(=O)(=O)c1cc(C=NO)cnc1-c1nc2cc(C(F)(F)F)cnc2n1C [Compound 2-3] | 100 | 100 | – | – |
| CCS(=O)(=O)c1cc(C=NOCC(F)(F)F)cnc1-c1nc2cc(C(F)(F)F)cnc2n1C [Compound 2-33] | 100 | 100 | – | – |
| CCS(=O)(=O)c1ccc(C=NO)nc1-c1nc2cc(C(F)(F)F)nnc2n1C [Compound 3-1] | – | – | 100 | 100 |
| CCS(=O)(=O)c1ccc(C=NOCC(F)(F)F)nc1-c1nc2cc(C(F)(F)F)nnc2n1C [Compound 3-2] | 100 | 100 | – | – |
| CCS(=O)(=O)c1cc(/C=N/O)cnc1-c1nc2cc(SC(F)(F)F)ccc2o1 [Compound 4-11] | 100 | 100 | – | – |
| CCS(=O)(=O)c1cc(/C=N/OCC(F)(F)F)cnc1-c1nc2cc(SC(F)(F)F)ccc2o1 [Compound 4-12] | 100 | 100 | – | – |
